The data set is described as follows: gradient 5% acetonitrile 3 min, to 50% in 2 min, to 85% in 15 min, held 3 min, 100 µL/min. To be noted: column: Zorbax Extend-C18 2.1 x 50 mm; eluents: water / acetonitrile, 0.1% formic acid. An outline of the steps:
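A Zorbax Extend-C18 column (2.1 × 50 mm, 1.8 μm) run at 100 μL/min with water and acetonitrile, both containing 0.1% formic acid, separated mixtures of ~100 pure standards. The HPLC was coupled to a quadrupole time-of-flight mass spectrometer operated in positive and negative ionization mode, with dead and dwell volumes of 40 μL and 900 μL. Each retention time was taken from a computationally picked adduct peak that was then manually inspected.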
On to `Cc1ccccc1N1CCN(C(=O)c2cn(-c3cc(N4CCSCC4)ncn3)cn2)CC1`, for which the RP-LC retention time amounted to 1040 s.

`Cc1nnc2ccc(-c3noc(Cc4ccc(Cl)cc4)n3)cn12` showed an RP-LC retention time of 868 s.

The molecule `CCS(=O)(=O)N1CC(=O)N(c2cc(Cl)ccc2C)C(C)(C(=O)NCc2ccccc2)C1` (stereo not drawn) came in with an RP-LC retention time of 919 s.

`Cc1cccc(C(=O)N2CCc3ccc(CNC(=O)NCC4CCCO4)cc32)c1` (stereo not drawn) displayed an RP-LC retention time of 894 s.

The molecule `COCCOCc1nc(C2CCCN2S(=O)(=O)c2ccccc2)no1` (stereo not drawn) returned an RP-LC retention time of 781 s.

Take `Cc1ccc(Cn2cccc2C(=O)C(=O)NC2CC2)cc1`: the RP-LC retention time stood at 928 s.

`C=CCN1C(=O)COc2ccc(-c3csc(NC(=O)COC)n3)cc21` returned an RP-LC retention time of 785 s.

On to `O=c1c2cc3c(cc2nc(SCc2nc(-c4ccc(F)cc4)no2)n1-c1ccc(F)cc1)OCO3`, for which the RP-LC retention time was 1170 s.

As to `CCCNC(=O)C12CCC(C)(C(=O)C1)C2(C)C` (stereo not drawn), the RP-LC retention time was 657 s.

`O=S(=O)(c1ccc2c(c1)CCCC2)N1CCCC1c1nc(-c2ccc(Cl)cc2)no1` (stereo not drawn) had an RP-LC retention time of 1370 s.

Molecule `COc1ccc(NC(=O)c2c(-c3c(F)cccc3Cl)noc2C)cc1[N+](=O)[O-]` had an RP-LC retention time of 992 s.

`Cc1ccc(-c2nnc(N3CCC(C(=O)NCc4cccs4)CC3)o2)cc1`: the RP-LC retention time turned out to be 933 s.

Consider `COC(=O)C1=CN(c2ccc(F)c(F)c2)c2cc(F)ccc2S1(=O)=O`, for which the RP-LC retention time is 860 s.

For `Cc1noc(C)c1CC(=O)N1CCN(c2ncnc3c2CCC3)CC1`, the RP-LC retention time is 559 s.

For the molecule `CCn1cc(-c2nc(CC(=O)Nc3ccccc3C)cs2)c2cccnc21`, the RP-LC retention time is 980 s.

Molecule `Cc1nc(NC(=O)CCn2cnc3ccccc3c2=O)sc1C(=O)N(C)C` showed an RP-LC retention time of 589 s.

Turning to `O=C(c1ccccc1)N1CCCC1c1nc(-c2ccccc2Cl)no1` (stereo not drawn), the RP-LC retention time turned out to be 978 s.

The molecule `CCN1C(=O)c2cccnc2Sc2cc(NC(=O)c3ccccc3C)ccc21` came in with an RP-LC retention time of 833 s.

For `CC(C)COC(=O)Nc1nc(CC(=O)Nc2ccccc2C(N)=O)cs1`, the RP-LC retention time is 703 s.

For `Cc1ccc(-c2noc(Cc3nc(-c4ccc(C)cc4C)cs3)n2)cc1`, the RP-LC retention time stood at 1190 s.

Molecule `COc1ccc(CNC(=O)Cn2c(N3CCCC3)nc(C)cc2=O)cc1` displayed an RP-LC retention time of 612 s.

In the case of `COc1ccc(Cl)cc1NC(=O)c1cc(C)n2nc(-c3ccco3)cc2n1`, the RP-LC retention time stood at 1300 s.

As to `c1ccc2c(N3CCCC3)nnc(-c3nc(C4CC4)no3)c2c1`, the RP-LC retention time was 649 s.

On to `CCN(CC)CCNC(=O)c1ccc2cnn(Cc3ccc(F)cc3)c2c1`, for which the RP-LC retention time came to 650 s.

As to `Cc1cc(Cl)ccc1OCCCC(=O)NO`, the RP-LC retention time worked out at 801 s.

In turn, `COc1cccc(Oc2nccnc2N2CCC(C(=O)NCCC(C)C)CC2)c1` registered an RP-LC retention time of 861 s.

`CCN1CCCn2nc(C3CCN(C(=O)COc4ccccc4)CC3)cc2C1=O` showed an RP-LC retention time of 678 s.

On to `COCCN1[C@@H]2CCN(C(=O)Nc3ccccc3F)C[C@@]2(C(=O)N2CCOCC2)CCS1(=O)=O`, for which the RP-LC retention time amounted to 676 s.

Molecule `CCOC(=O)Cc1csc(NC(=O)c2csc(Nc3cccc(Cl)c3)n2)n1` returned an RP-LC retention time of 952 s.

Regarding `O=C(c1ccc(-c2ccc([N+](=O)[O-])cc2Cl)o1)N1CCOCC1`, the RP-LC retention time amounted to 778 s.

`COc1ccc(C(=O)N2C(C(=O)NC(C)C)COC23CCN(C(=O)CC(C)(C)C)CC3)cc1` (stereo not drawn) registered an RP-LC retention time of 713 s.

For `CCC(=O)NCCc1csc(C2CCN(C(=O)C3CCC3)CC2)n1`, the RP-LC retention time was found to be 679 s.

For `O=C(Nc1ccc(F)c(Cl)c1)NC1CCCN(c2cc(-c3ccncc3)[nH]n2)C1` (stereo not drawn), the RP-LC retention time was determined as 657 s.
